Each block holds one compound with its values, some of them ahead of it.
What was measured:
Format in all cases: cell-based
[1] = target: T1, human TAS2R38 (Homo sapiens, UniProt P59533); assay: Fluo-4 calcium assay, tetracycline-inducible cells stably expressing human TAS2R38 and G16gust44; details: ligand 250 μM; for fluorescence signal (in words): HEK293 T-Rex cells, TAS2R38, G16-gustducin 44
T1 construct: expressed in transfected cells
T1 sequence (P59533 1-333): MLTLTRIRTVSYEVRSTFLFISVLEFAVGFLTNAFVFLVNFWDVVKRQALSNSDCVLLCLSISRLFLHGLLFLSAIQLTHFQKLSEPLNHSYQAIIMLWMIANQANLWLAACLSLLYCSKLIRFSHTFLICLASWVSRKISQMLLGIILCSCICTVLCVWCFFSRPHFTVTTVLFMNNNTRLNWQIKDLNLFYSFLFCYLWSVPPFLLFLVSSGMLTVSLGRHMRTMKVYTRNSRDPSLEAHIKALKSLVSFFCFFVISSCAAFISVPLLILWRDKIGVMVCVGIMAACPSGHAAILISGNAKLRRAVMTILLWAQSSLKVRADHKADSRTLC
Source text: (§1) The following results were obtained:

[2] = test system: G-protein only (control w/o tetracycline); assay: Fluo-4 calcium assay, G-protein only control w/o tetracycline (TAS2R38 cell line); details: Gα16gustducin44, ligand 250 μM
Source text: as §1

[3] = target: T2, human TAS2R16 (Homo sapiens, UniProt Q9NYV7); assay: Fluo-4 calcium assay, cells transiently transfected with human TAS2R16 and expressing a promiscuous G-protein; details: TAS2R16, ligand 5 mM
T2 construct: expressed in transfected cells; host or cells: HEK293T cells stably expressing Gα16gustducin44, Gα16 or Gα16z44
T2 sequence (Q9NYV7 1-291): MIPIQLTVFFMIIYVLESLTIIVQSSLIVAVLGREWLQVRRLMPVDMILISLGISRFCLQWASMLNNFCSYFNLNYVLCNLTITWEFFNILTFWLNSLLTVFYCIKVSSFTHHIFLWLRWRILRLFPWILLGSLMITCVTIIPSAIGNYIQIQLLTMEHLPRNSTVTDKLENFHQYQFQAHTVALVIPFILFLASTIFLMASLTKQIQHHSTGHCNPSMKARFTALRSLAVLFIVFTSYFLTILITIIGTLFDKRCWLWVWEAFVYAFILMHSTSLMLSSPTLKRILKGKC
Method: The protocol is described in “G-protein coupled receptors (Signal Transduction Series)”; Editors: Tatsuya Haga and Gabriel Berstein, 1st ed., 424 pp.CRC Press—Boca Raton, Fla.; September 1999, and may be summarised as follows: • 1. Day 0: 96-well plates are seeded with 20K cells per well and maintained at 37 degrees C. overnight in nutritive growth media. • 2. Day 1: Cells are transfected using 300 ng of GPCR DNA and 0.6 μl of Lipofectamine 2000 (Invitrogen) per well. Transfected cells are and maintained at 37 degrees C. overnight in nutritive growth media. • 3.
At day 0, cells stably expressing the G-protein are plated in black, clear-bottom 96-well plate at 20,000 cells per well and grown overnight in selective growth media. On day 1, the media is changed to an antibiotic-free growth media and the cells are transfected using 300 ng GPCR DNA and 0.6 μl of Lipofectamine 2000 (Invitrogen). The cells are grown overnight and processed the next day using the Fluo-4 calcium assay conditions described in Example 2 above.

[4] = target: T3, human TAS1R2/TAS1R3 (Homo sapiens, UniProt Q7RTX0+Q8TE23); assay: Fluo-4 calcium assay, cells transfected with human sweet receptor TAS1R2/TAS1R3 and expressing a promiscuous G-protein; details: for fluorescence signal with Gα16-gustducin 44, times stronger than wild-type Gα16: HEK293T cells; for fluorescence signal with Gα16-gustducin 44, times stronger than wild-type Gα16 / fluorescence signal (in words): ligand 2.5 mM
T3 construct: expressed in transfected cells; host or cells: HEK293T cells stably expressing the G-protein, co-transfected with T1R2 and T1R3 cDNA
T3 sequence (Q8TE23 20-839): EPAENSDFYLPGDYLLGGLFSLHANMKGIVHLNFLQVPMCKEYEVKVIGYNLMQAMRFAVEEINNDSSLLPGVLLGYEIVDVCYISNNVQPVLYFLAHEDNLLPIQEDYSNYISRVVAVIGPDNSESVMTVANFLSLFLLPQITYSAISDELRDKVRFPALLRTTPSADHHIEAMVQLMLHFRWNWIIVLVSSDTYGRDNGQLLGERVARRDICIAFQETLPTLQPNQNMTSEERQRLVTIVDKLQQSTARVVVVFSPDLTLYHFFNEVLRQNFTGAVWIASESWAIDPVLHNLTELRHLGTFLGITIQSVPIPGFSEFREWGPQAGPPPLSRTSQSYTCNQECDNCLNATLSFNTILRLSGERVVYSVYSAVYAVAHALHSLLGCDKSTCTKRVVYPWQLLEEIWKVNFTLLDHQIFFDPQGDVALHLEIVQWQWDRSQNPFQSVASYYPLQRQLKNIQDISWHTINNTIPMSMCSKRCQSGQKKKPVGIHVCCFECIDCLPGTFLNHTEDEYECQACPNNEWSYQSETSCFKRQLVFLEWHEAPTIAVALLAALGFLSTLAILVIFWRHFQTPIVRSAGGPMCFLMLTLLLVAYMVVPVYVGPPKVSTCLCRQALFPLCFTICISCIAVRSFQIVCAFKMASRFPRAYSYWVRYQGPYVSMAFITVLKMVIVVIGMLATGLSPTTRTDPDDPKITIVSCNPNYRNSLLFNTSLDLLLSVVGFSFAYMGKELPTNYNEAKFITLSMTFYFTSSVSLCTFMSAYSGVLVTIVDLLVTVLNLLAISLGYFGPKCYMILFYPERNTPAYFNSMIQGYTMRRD
T3 sequence (Q7RTX0 21-852): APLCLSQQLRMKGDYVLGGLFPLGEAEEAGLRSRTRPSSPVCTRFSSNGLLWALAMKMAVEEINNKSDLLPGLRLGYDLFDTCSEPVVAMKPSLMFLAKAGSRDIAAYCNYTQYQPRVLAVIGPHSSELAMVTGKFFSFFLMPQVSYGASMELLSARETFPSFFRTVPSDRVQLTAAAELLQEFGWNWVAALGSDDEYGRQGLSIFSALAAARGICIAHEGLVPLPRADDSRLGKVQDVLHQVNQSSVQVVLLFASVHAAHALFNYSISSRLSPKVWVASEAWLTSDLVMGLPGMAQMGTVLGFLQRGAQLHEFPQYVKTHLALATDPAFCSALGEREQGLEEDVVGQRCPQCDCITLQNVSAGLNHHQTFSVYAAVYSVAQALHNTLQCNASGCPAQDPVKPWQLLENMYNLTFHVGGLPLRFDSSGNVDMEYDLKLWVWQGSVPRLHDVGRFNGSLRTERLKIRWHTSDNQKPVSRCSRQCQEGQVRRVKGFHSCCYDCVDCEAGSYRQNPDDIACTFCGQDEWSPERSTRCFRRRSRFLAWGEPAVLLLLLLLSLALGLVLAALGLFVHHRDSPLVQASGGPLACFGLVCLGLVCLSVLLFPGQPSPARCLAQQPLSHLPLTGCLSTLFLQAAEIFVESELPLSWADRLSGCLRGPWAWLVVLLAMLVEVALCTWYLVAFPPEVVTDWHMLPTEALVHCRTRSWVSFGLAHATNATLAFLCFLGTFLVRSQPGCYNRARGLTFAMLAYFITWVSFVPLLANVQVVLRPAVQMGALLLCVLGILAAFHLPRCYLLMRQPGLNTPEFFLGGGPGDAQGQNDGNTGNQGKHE
Method: (§2) At day 0, cells stably expressing the G-protein are plated in a 6-well plate at a density of 800,000-950,000 cells per well and grown overnight in selective growth media. On day 1, the media is changed to an antibiotic-free growth media and the cells are transfected using 2 μg of T1 R2 and 2 μg of T1 R3 cDNA and 10 μl of Lipofectamine 2000 (Invitrogen). The cells are maintained overnight in antibiotic-free growth media. On day 2, the cells are replated into a black, clear-bottom 96 well plate at 20,000 cells per well and grown overnight. The morning of the calcium assay, the media is replaced with low glucose media supplemented with Glutamax and dialyzed FBS to minimize receptor desensitization by sugars and glutamate. The cells are further incubated in this media for 6 hours at 37 degrees C. At the end of this period, the cells are processed for the calcium assay according to conditions described above.
(§3) Following the methodology as described in Example 5 the following results were obtained: […]

[5] = test system: sham transfected (control); assay: Fluo-4 calcium assay, sham transfected control cells of Table 7
Method: as §2, §3

[6] = G-protein Gα16gustducin44, ligand 2.5 mM

Compound: NC(=S)Nc1ccccc1 [phenylthiocarbamide]
increase in mean fluorescence over baseline following ligand addition ([1]; G-protein + human TAS2R38 (with tetracycline), Gα16gustducin44): 8989 RFUs | fluorescence signal (in words) [1]: robust fluorescence signal | increase in mean fluorescence over baseline following ligand addition [2]: 3422 RFUs

fluorescent signal with Gα16-gustducin 44, times stronger than reference chimeric G-protein Gα16-z44 ([3]; HEK293T cells, Flexstation): about 3 times | fluorescent signal with Gα16-gustducin 44, times stronger than wild-type Gα16 ([3]; HEK293T cells, Flexstation): about 7 times | fluorescent signal (in words) [3]: robust fluorescent signal
Compound: OCc1ccccc1O[C@@H]1O[C@H](CO)[C@@H](O)[C@H](O)[C@H]1O [salicin]

fluorescence signal (in words) [1]: robust response
Compound: CCCc1cc(=O)[nH]c(=S)[nH]1 [propythiouracil]

fluorescence signal with Gα16-gustducin 44, times stronger than wild-type Gα16 [4]: 2 times | fluorescence signal (in words) [4]: robust flurorescence signal
Compound: CC1=CC(=O)[N-]S(=O)(=O)O1.[K+] [acesulfame K]

increase in mean fluorescence over baseline following ligand addition ([4]; G-protein Gα15, ligand 2.5 mM): 1300 RFUs | increase in mean fluorescence over baseline following ligand addition [4, 6]: 4617 RFUs | fluorescence signal with Gα16-gustducin 44, times stronger than wild-type Gα16 [4]: 2 times | fluorescence signal (in words) [4]: robust flurorescence signal
Compound: OC[C@H]1O[C@H](O[C@]2(CCl)O[C@H](CCl)[C@@H](O)[C@@H]2O)[C@H](O)[C@@H](O)[C@H]1Cl [sucralose]
increase in mean fluorescence over baseline following ligand addition ([5]; G-protein Gα15, ligand 2.5 mM): 643 RFUs | increase in mean fluorescence over baseline following ligand addition [5, 6]: 1370 RFUs

Source: US8609362B2, “G-proteins” (Givaudan SA, priority 2002, dated 2013)
